From patent US11186547B2, “High-purity quinoline derivative and method for manufacturing same” (Eisai R&D Management Co., Ltd., priority 2014, dated 2021)
Blank lines part the entries; values can stand above or below the compound they belong to.

Experiments:
[1] = Workplace Safety Site, Public Notice No. 166 of Mar. 27, 2012; cited from earlier work
[2] = decomposition on heating after dissolution in a solvent; assay type: physicochemical; details: heated after dissolved in a solvent
[3] = genotoxicity, consideration of the present inventors; details: according to the consideration of the present inventors
From the text: (§1) The compound (A-1) is the starting material of the step A, but its solubility in organic solvents is low.

[4] = solubility in organic solvents; assay type: physicochemical
From the text: as §1

Compound: COc1cc2nccc(Oc3ccc(N)c(Cl)c3)c2cc1C(N)=O [compound (I), 4-(4-Amino-3-chlorophenoxy)-7-methoxy-quinoline-6-carboxamide]
- mutagenicity [1]: strong mutagenicity was recognized

Compound: COc1cc2nccc(Oc3ccc(NC(=O)NC4CC4)c(Cl)c3)c2cc1C(N)=O [methanesulfonate of the compound (IV), 4-[3-chloro-4-(cyclopropylaminocarbonyl)aminophenoxy]-7-methoxy-6-quinoline-carboxamide Methanesulfonate]
- decomposition product formed [2]: the compound (I) is formed as a decomposition product

- solubility in organic solvents [4]: low
Compound: COc1cc2nccc(Cl)c2cc1C(N)=O [compound (A-1), 4-chloro-7-methoxy-quinoline-6-carboxamide]
- genotoxicity [3]: possibility that the compound (A-1) exhibits genotoxicity
